Experimental data as given in publication PMC8391312 (Biomedicines, 2021).

Tested on: Cav1.2/1.3 channels
Assay type: cell-based, rat

[Cl][Cd][Cl] [Cd^2+, CdCl2]
block of current amplitude: 98 ± 0.8%
